Measurements as given in PMC11574108, “4-Furanylvinylquinoline derivative as a new scaffold for the design of oxidative stress initiator and glucose transporter inhibitor drugs” (Scientific Reports, 2024).

Experiments:
[1] = test system: U-251 spheroids; assay: 3D spheroid cell viability assay; format: cell-based; details: Homo sapiens, 3D spheroids, CellTiter-Glo 3D, 72-h treatment, read-out: IC50 U-251 (3D model)
Method: (§1) The HCT 116 cell lines, AsPC-1, PANC-1 (5,000), and U-251 cells (8,000) in 100 µL of medium were seeded in 96-well ULA Corning spheroid microplates (Sigma-Aldrich) and incubated for 72 h at 37 °C to form spheroids. The medium from each well was then gently removed and freshly prepared solutions of 13 were added. The treated spheroids were incubated for the next 72-h. Afterward, cell viability assays were performed using CellTiter-Glo 3D Reagent (Promega) according to the manufacturer’s protocol. Briefly, CellTiter-Glo 3D Reagent was added in equal volume to the medium in each well. The plate was vigorously mixed for 5 min and then incubated for 25 min at room temperature. The luminescence was measured using a multiplate reader (Synergy 4, BioTek). The experiment for each sample was performed at least three times. The results from the assay are presented as IC50 values, which were calculated using GraphPad Prism v.8.0 (USA).
(§2) To confirm the cytotoxicity ranking, the viability of the cells was also estimated on a 3D spheroid model, which better represented a solid tumour. […] The cell lines that represented pancreatic cancer were less responsive to derivative 13, which was similar to the 2D model. […] However, the activity of derivative 13 was confirmed on the 3D model that reflected a real tumour, which is undoubtedly a positive result and a reason for further, more in-depth studies to clarify the mechanism of action of the 4-furanylvinylquinoline derivative 13.

[2] = test system: AsPC-1 spheroids; assay: 3D spheroid cell viability assay; format: cell-based; details: Homo sapiens, ASPC1; 3D spheroids, CellTiter-Glo 3D, 72-h treatment; read-out: IC50 AsPC-1 (3D model)
Method: as §1, §2

[3] = test system: PANC-1 spheroids; assay: 3D spheroid cell viability assay; format: cell-based; details: Homo sapiens, 3D spheroids, CellTiter-Glo 3D, 72-h treatment, read-out: IC50 PANC-1 (3D model)
Method: as §1, §2

[4] = test system: HCT 116 p53-/- spheroids; assay: 3D spheroid cell viability assay; format: cell-based; details: Homo sapiens, HCT-116, 72 h, 3D spheroids, CellTiter-Glo 3D, 72-h treatment; read-out: IC50 HCT 116 p53-/- (3D model)
Method: as §1, §2

[5] = test system: p21; assay: Western blot, p21 protein level; format: cell-based, human; details: HCT 116 p53+/+, 0.5 and 1 µM, 24 and 48-h
Method: (§3) The cells (500,000) were seeded in 35 mm Petri dishes (Nunc) and incubated in a solution of the tested compound (0.5 µM and 1 µM) for 24 h and 48 h. The cells were then dissociated using trypsin, collected in Eppendorf tubes, and centrifuged at 2,000 rpm. Next, cell pellets were resuspended in complete RIPA buffer containing a Halt Protease Inhibitor Cocktail and Halt Phosphatase Inhibitor Cocktail along with 0.5 M EDTA (all reagents from Thermo Fisher Scientific) and lysed on ice for 20 min. Afterward, the lysates were sonicated and centrifuged at 10,000 rpm for 10 min at 4 °C. The obtained supernatants were collected for further analysis. The protein concentration was determined using a Micro BCA™ Protein Assay Kit (Thermo Fisher Scientific) according to the manufacturer’s procedure. Equal amounts of proteins (16 µg) were electrophoresed on SDS-Page gels and transferred onto nitrocellulose membranes. Novex Sharp Pre-Stained Protein Standard (Thermo Fisher Scientific) was used as a colored molecular weight marker. […]
The overexpression of p21 also causes cell cycle inhibition via its binding to the […]. […] The cell cycle in the U-251 cell line was inhibited precisely in the S-phase, and it is, therefore, likely that the p21 protein expression was not detected in the glioma cells tested (data not shown).

[6] = test system: Fas; assay: Western blot, Fas protein level; format: cell-based, human
Method: as §3, with “marker. The membranes were blocked in 5% non-fat milk prepared in TPBS (PBS supplemented by 0.1% Tween-20) for 1 h. After blocking, the membranes were cut, and then incubated with specific primary monoclonal antibodies (all purchased from Cell Signaling) overnight at 4 °C.” for “marker.”

IC50 [1]: 340 ± 70 nM | IC50 [2]: 4180 ± 1000 nM | IC50 [3]: 2160 ± 370 nM | IC50 [4]: ~1000 nM
Structure (SMILES): O=[N+]([O-])c1ccc(/C=C/c2ccnc3ccccc23)o1 [Compound 13]
p21 protein expression vs control [5]: more than two-fold increase | Fas protein level vs control ([6]; HCT 116 p53+/+, 24-h): more than three-fold increase | Fas protein expression vs untreated cells ([6]; HCT 116 p53-/-, 48-h): four times higher
